Where “and” joins values, the source holds several entries; their conditions need not be identical. Equal values may be shown once. Read-outs that look alike come from different tables or passages of the source.
Assays:
[1] = system: hematological tumor cells; assay: Proliferation, MTT or Alamar Blue; type: cell-based; conditions: Homo sapiens
r/r MM and r/r lymphoma = assay: Phase I trial NCT05526313, efficacy assessment; type: in vivo, human
Method: This open-label, non-randomized, first-in-human phase I dose-escalation two-center trial enrolled adult patients with lymphoma or MM who were refractory or relapsed after ≥1 prior regimen (NCT05526313). All patients provided written informed consent, and the study was conducted in accordance with the principles of the Declaration of Helsinki. PM was administered by 30-min intravenous infusion in a standard 3 + 3 dose escalation design, starting from 1.2, 2.4, 4.0, 6.0, 8.4, 11.2, up to 15 mg/m^2. This trial was conducted in three sequential stages as follows: the first stage as a single dose (day 1), the second stage as multiple doses (day 8, 11, and 15), and the third stage as extended doses (day 1, 4, 8, 11 in 21-day cycles). The decision to proceed to the third stage is based on the patient’s continued benefit from the previous two stages. Patients continued to receive PM until unacceptable toxicity or disease progression. Between August 2020 and August 2022, 11 r/r MM and 18 r/r lymphoma patients were enrolled. The cutoff date for the assessment of safety and efficacy was July 7, 2023. The incidence and severity of adverse events were assessed according to the National Cancer Institute Common Terminology Criteria for Adverse Events (CTCAE 5.0). The efficacy of PM in patients with r/r MM was evaluated according to the standards of the Chinese Multiple Myeloma Diagnosis and Treatment Guidelines (2017 Revised) and the 2016 International Myeloma Working Group (IMWG). Minimal response (MR) (only for the evaluation of r/r MM): serum M protein decreased by 25–49% and 24 h light chain decreased by 50–89%. If soft tissue plasmacytoma exists at baseline, the sum of the product of perpendicular diameters (SPD) of measurable lesions is required to be reduced by ≥50%.[56],[57] The number and size of osteolytic lesions have not increased (compression fractures are allowed). […] Detailed methods for pharmacodynamic studies, safety and tolerability assessments (including the definition of DLT and maximum tolerated dose), and efficacy assessment are provided in Supplementary Methods.
Disease response of patients was measured according to the Chinese Multiple Myeloma Diagnosis and Treatment Guidelines (2017 Revised) and the 2016 International Myeloma Working Group (IMWG) for multiple myeloma or the International Working Group consensus response evaluation criteria in lymphoma (RECIL 2017). Patients need to be evaluated for efficacy after completing the cycle 1 of PM treatment (single and multiple dosing phases, day 25) and every 2 treatment cycles during the extended dosing phase. For r/r multiple myeloma, the efficacy was evaluated by quantification of M protein immunofixation electrophoresis of serum and urine. For r/r lymphoma, if sites with available positron emission tomography (PET) imaging, tumor volume was quantified by PET computed tomography (CT), and if sites where PET was not available, CT or magnetic resonance imaging was used. Objective response rate (ORR)=CR+PR+MR, and disease control rate (DCR)=CR+PR+MR+SD, and calculate their 95% confidence interval using the Clopper-Pearson method. The efficacy assessable population was determined to include all patients who were administered at least one dose of PM and had undergone at least one tumor assessment after the baseline.

[2] = by row: r4 MM, r5 DLBCL, r6 FL, r7 other lymphomas, r8 total

CN(Cc1nc2c(N3CCOCC3)nc(-c3ccc(N)cc3)nc2n1C)c1ncc(C(=O)NO)cn1.CS(=O)(=O)O [PM, 2-(((2-(4-Aminophenyl)-9-methyl-6-(4-morpholinyl)-9H-purine-8-yl)methyl)methylamino)-N-hydroxy-5-pyrimidine-carboxamide Mesylate]
IC50 ([1]; read-out: IC50, hematological tumor cells): < 10 nM
IC50 ([1]; some cell lines, read-out: IC50, hematological tumor cell lines): < 1 nM
DCR (r/r MM and r/r lymphoma; DLBCL, n=11): 72.7%
duration of PR (r/r MM and r/r lymphoma; FL patient with multiple extranodal lesions): more than 10 cycles
DCR (r/r MM and r/r lymphoma; FL, n=3): 66.7%
ORR (r/r MM and r/r lymphoma; FL, n=3): 66.7%
duration of MR (r/r MM and r/r lymphoma; Patient No.10, 6.0 mg/m²): more than 6 months
M-protein after 2 cycles (r/r MM and r/r lymphoma; Patient No.10, 6.0 mg/m², baseline 26.290 g/L): 15.998 g/L
Best Response CR (r/r MM and r/r lymphoma; [2]): 6(54.5) n (%) and 6(20.7) n (%)
Best Response MR (r/r MM and r/r lymphoma; [2]): 1(33.3) n (%)
Best Response PD (r/r MM and r/r lymphoma; [2]): 1(33.3) n (%)
Best Response PR (r/r MM and r/r lymphoma; [2]): 1(33.3) n (%)
Best Response SD (r/r MM and r/r lymphoma; [2]): 10(34.5) n (%)
DCR (r/r MM and r/r lymphoma; other lymphomas, n=4): 100%
ORR (r/r MM and r/r lymphoma; other lymphomas, n=4): 50.0%
duration of CR (r/r MM and r/r lymphoma; r/r DEL DLBCL patient with MYD88 mutation): over 18 months
duration of CR (r/r MM and r/r lymphoma; r/r DEL patient No.26): more than 1.5 years
Response (%): CR (r/r MM and r/r lymphoma; r/r DLBCL): 54.5%
ORR (r/r MM and r/r lymphoma; r/r DLBCL, n=11): 63.6%
number of complete responses (r/r MM and r/r lymphoma; r/r DLBCL, n=11): 6
number of partial responses (r/r MM and r/r lymphoma; r/r DLBCL, n=11): 1
DCR (r/r MM and r/r lymphoma; r/r MM, n=11): 72.7%
ORR (r/r MM and r/r lymphoma; r/r MM, n=11, 1.2–8.4 mg/m^2): 9.1% and 9.09%
ORR (r/r MM and r/r lymphoma; r/r lymphoma, n=18, 4.0–15.0 mg/m^2): 61.1%
DCR (r/r MM and r/r lymphoma; total, n=29): 75.9%
ORR (r/r MM and r/r lymphoma; total, n=29): 41.4%
